Experimental data: BindingDB's records for PubMed 7791071 (Rhone-Poulenc Rorer Central Research, 1995)
Where “and” joins values, the source holds several entries; their conditions need not be identical. Equal entries are not always repeated.

molecular target: T1, Cholecystokinin (Sus scrofa, UniProt P01356)
T1 sequence (P01356 whole entry): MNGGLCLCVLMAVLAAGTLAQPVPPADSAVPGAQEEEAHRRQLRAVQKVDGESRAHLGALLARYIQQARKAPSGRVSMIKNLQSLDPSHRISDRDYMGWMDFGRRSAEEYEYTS

| SMILES | Ki |
| --- | --- |
| Cc1cccc(NC(=O)N[C@H]2N=C(c3ccccc3)c3ccccc3N(C)C2=O)c1 | 7.2 nM and 4.8 nM |
| CSCC[C@H](NC(=O)[C@H](Cc1c[nH]c2ccccc12)NC(=O)CCNC(=O)OC(C)(C)C)C(=O)N[C@@H](CC(=O)O)C(=O)N[C@@H](Cc1ccccc1)C(N)=O [CAS_5534-95-2] | 3.3 nM and 6 nM |
| CSCC[C@H](NC(=O)[C@H](Cc1ccc(OS(=O)(=O)O)cc1)NC(=O)[C@@H](N)CC(=O)O)C(=O)NCC(=O)N[C@@H](Cc1c[nH]c2ccccc12)C(=O)N[C@@H](CCSC)C(=O)N[C@@H](CC(=O)O)C(=O)N[C@@H](Cc1ccccc1)C(N)=O [(3S)-3-[(2S)-2-[(2S)-2-{2-[(2S)-2-[(2S)-2-[(3S)-3-amino-3-formamidopropanoic acid]-3-[4-(sulfooxy)phenyl]propanamido]-4-(methylsulfanyl)butanamido]acetamido}-3-(1H-indol-3-yl)propanamido]-4-(methylsulfanyl)butanamido]-3-{[(1S)-1-carbamoyl-2-phenylethyl]carbamoyl}propanoic acid] | 0.43 nM and 1.1 nM |
| CN1C(=O)[C@@H](NC(=O)c2cc3ccccc3[nH]2)N=C(c2ccccc2)c2ccccc21 [1H-Indole-2-carboxylic acid (1-methyl-2-oxo-5-phenyl-2,3-dihydro-1H-benzo[e][1,4]diazepin-3-yl)-amide: 0.1C4H10O. 0.15CH2Cl2] | 141 nM and 87 nM |
| CC(Cc1c[nH]c2ccccc12)(NC(=O)OC1C2CC3CC(C2)CC1C3)C(=O)NCC(NC(=O)CCC(=O)O)c1ccccc1 (stereo unspecified) [NSC_108186] | 0.46 nM and 2 nM |
| O=C(NC(Cc1c[nH]c2ccccc12)C(=O)O)c1ccc(Cl)cc1 (stereo unspecified) | > 10000 nM |
